Data taken from ChEMBL document CHEMBL3132769, “Fragment growing to retain or alter the selectivity of anchored kinase hinge-binding fragments” (Medchemcomm, 2014).

Assays:
[1] = molecular target: Protein kinase C gamma type (Homo sapiens) (UniProt P05129); assay: Inhibition of human truncated PKC gamma expressed in baculovirus assessed as substrate phosphorylation using fluorescence-labelled peptides as substrate at 0.06 uM after 90 mins by microfluidic peptide phosphorylation assay
[2] = molecular target: T1, Cytoplasmic tyrosine-protein kinase BMX (Homo sapiens) (UniProt P51813); assay: Inhibition of human full length BMX expressed in baculovirus assessed as substrate phosphorylation using fluorescence-labelled peptides as substrate at 420 uM after 90 mins by microfluidic peptide phosphorylation assay
T1 sequence (whole entry): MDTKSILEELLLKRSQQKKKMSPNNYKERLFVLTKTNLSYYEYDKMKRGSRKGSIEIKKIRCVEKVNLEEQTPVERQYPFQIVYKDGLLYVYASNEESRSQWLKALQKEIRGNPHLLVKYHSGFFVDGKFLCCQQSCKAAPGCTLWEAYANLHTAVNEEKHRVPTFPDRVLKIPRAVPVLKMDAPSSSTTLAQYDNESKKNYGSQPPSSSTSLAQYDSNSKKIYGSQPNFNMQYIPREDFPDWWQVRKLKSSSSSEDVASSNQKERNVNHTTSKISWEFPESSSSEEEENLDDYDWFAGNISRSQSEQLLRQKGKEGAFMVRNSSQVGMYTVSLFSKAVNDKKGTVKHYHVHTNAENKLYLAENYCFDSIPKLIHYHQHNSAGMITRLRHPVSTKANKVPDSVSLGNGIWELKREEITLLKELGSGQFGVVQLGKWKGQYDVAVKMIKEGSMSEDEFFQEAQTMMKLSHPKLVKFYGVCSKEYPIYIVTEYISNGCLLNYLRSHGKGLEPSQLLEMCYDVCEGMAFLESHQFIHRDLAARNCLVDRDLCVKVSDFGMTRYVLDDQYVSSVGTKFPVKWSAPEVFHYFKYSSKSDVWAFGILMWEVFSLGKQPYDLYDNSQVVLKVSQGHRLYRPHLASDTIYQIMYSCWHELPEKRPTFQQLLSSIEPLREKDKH

[3] = molecular target: T2, Serine/threonine-protein kinase D3 (Homo sapiens) (UniProt O94806); assay: Inhibition of human full length PKD3 expressed in baculovirus assessed as substrate phosphorylation using fluorescence-labelled peptides as substrate at 0.2 uM after 90 mins by microfluidic peptide phosphorylation assay
T2 sequence (whole entry): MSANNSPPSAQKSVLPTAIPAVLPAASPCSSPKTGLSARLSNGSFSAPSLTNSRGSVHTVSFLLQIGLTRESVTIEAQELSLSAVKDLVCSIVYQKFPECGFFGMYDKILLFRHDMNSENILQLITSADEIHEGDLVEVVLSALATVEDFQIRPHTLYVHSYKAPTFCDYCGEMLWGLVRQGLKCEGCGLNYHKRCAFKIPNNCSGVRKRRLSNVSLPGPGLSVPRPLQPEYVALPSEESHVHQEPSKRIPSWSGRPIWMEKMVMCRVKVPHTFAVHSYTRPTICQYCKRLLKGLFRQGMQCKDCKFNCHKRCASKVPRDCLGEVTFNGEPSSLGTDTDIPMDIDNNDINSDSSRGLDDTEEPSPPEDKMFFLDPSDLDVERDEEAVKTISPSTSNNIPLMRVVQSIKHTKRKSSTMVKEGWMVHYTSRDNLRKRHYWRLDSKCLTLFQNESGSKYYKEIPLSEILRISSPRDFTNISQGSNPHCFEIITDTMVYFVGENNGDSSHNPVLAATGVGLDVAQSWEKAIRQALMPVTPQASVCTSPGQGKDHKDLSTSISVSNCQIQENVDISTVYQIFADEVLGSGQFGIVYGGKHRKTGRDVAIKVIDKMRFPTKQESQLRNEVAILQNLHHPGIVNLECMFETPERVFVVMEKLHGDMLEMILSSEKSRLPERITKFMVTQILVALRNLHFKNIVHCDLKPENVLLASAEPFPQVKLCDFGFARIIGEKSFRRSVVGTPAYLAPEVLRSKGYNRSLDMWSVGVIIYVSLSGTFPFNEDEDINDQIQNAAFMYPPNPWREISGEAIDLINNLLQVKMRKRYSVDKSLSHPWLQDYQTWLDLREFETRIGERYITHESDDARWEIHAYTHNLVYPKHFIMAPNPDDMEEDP

[4] = molecular target: Platelet-derived growth factor receptor alpha (Homo sapiens) (UniProt P16234); assay: Inhibition of human PDGFR alpha catalytic domain expressed in baculovirus assessed as substrate phosphorylation using fluorescence-labelled peptides as substrate at […] after 90 mins by microfluidic peptide phosphorylation assay
[5] = molecular target: Hepatocyte growth factor receptor (Homo sapiens) (UniProt P08581); assay: Inhibition of human MET cytoplasmic domain expressed in baculovirus assessed as substrate phosphorylation using fluorescence-labelled peptides as substrate at 9 uM after 90 mins by microfluidic peptide phosphorylation assay
Sequence of Hepatocyte growth factor receptor (Homo sapiens) (P08581 whole entry, the tested form may be a part): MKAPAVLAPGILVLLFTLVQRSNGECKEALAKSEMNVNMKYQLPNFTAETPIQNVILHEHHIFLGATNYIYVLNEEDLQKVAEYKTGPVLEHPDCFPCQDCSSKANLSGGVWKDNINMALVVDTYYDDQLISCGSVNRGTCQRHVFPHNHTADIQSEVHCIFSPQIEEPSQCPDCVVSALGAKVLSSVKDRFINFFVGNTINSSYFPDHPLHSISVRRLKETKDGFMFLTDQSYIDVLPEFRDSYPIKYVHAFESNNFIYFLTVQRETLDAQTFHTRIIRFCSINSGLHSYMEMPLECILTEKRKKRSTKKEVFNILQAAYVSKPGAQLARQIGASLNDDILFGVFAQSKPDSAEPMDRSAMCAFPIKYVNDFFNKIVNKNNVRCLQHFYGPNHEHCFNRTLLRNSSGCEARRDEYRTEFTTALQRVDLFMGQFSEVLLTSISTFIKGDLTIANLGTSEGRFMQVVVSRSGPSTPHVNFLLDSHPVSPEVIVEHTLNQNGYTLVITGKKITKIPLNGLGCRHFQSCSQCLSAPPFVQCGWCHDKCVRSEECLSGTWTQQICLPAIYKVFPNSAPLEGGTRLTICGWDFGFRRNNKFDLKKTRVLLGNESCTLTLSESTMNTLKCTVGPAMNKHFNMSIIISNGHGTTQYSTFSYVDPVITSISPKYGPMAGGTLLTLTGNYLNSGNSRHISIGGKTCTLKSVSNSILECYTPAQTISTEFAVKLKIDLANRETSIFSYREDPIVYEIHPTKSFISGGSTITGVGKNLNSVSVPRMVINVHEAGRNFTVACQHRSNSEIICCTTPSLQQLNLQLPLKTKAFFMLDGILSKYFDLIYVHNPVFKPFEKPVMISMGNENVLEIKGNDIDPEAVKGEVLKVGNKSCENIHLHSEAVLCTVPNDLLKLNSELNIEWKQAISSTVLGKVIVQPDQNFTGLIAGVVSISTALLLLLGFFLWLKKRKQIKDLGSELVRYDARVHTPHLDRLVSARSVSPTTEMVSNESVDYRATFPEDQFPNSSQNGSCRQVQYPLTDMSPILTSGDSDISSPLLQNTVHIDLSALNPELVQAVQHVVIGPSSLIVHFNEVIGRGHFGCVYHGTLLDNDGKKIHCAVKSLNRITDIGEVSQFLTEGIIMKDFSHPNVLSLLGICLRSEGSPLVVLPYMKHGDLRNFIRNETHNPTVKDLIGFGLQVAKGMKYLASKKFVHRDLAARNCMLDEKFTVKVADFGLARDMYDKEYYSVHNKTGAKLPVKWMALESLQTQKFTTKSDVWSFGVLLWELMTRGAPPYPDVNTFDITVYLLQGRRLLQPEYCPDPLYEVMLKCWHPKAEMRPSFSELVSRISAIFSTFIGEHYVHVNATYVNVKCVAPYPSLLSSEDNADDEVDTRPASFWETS

[6] = molecular target: Serine/threonine-protein kinase MARK1 (Homo sapiens) (UniProt Q9P0L2); assay: Inhibition of human full length MARK1 expressed in baculovirus assessed as substrate phosphorylation using fluorescence-labelled peptides as substrate at 95 uM after 90 mins by microfluidic peptide phosphorylation assay
[7] = molecular target: Tyrosine-protein kinase ABL1 (Homo sapiens) (UniProt P00519); assay: Inhibition of human full-length ABL expressed in baculovirus assessed as substrate phosphorylation using fluorescence-labelled peptides as substrate at 95 uM after 90 mins by microfluidic peptide phosphorylation assay
Sequence of Tyrosine-protein kinase ABL1 (Homo sapiens) (P00519 whole entry, the tested form may be a part): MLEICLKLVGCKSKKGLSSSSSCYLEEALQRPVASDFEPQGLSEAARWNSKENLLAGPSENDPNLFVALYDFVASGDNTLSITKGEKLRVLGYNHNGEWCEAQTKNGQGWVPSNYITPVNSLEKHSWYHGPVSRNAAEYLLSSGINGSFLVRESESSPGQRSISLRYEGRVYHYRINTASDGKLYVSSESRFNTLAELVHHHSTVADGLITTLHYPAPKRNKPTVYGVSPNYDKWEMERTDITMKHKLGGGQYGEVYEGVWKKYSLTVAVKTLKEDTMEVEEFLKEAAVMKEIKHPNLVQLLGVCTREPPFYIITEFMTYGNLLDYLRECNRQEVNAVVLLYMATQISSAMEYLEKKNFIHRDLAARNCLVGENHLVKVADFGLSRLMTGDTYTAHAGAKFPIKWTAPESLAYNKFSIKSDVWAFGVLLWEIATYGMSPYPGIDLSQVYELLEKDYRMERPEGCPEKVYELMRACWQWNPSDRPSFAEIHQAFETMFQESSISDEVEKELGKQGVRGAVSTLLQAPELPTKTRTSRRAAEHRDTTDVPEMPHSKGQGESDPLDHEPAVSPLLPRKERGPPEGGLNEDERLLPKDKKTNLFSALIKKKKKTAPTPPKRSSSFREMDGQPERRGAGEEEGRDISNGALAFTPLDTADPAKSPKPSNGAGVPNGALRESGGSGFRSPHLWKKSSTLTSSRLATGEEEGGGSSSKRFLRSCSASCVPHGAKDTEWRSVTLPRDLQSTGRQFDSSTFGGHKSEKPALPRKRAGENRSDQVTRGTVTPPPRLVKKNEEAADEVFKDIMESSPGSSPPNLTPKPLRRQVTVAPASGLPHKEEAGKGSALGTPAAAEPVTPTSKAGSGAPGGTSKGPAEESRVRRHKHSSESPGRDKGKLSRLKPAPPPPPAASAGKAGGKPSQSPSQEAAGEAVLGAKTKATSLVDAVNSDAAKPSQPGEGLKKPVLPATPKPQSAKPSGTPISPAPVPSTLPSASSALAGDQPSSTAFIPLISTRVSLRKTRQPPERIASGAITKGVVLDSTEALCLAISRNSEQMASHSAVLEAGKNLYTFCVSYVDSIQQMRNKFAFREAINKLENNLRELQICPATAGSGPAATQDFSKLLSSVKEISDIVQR

[8] = molecular target: Vascular endothelial growth factor receptor 2 (Homo sapiens) (UniProt P35968); assay: Inhibition of human KDR cytoplasmic domain expressed in baculovirus assessed as substrate phosphorylation using fluorescence-labelled peptides as substrate at 8 uM after 90 mins by microfluidic peptide phosphorylation assay
Sequence of Vascular endothelial growth factor receptor 2 (Homo sapiens) (P35968 whole entry, the tested form may be a part): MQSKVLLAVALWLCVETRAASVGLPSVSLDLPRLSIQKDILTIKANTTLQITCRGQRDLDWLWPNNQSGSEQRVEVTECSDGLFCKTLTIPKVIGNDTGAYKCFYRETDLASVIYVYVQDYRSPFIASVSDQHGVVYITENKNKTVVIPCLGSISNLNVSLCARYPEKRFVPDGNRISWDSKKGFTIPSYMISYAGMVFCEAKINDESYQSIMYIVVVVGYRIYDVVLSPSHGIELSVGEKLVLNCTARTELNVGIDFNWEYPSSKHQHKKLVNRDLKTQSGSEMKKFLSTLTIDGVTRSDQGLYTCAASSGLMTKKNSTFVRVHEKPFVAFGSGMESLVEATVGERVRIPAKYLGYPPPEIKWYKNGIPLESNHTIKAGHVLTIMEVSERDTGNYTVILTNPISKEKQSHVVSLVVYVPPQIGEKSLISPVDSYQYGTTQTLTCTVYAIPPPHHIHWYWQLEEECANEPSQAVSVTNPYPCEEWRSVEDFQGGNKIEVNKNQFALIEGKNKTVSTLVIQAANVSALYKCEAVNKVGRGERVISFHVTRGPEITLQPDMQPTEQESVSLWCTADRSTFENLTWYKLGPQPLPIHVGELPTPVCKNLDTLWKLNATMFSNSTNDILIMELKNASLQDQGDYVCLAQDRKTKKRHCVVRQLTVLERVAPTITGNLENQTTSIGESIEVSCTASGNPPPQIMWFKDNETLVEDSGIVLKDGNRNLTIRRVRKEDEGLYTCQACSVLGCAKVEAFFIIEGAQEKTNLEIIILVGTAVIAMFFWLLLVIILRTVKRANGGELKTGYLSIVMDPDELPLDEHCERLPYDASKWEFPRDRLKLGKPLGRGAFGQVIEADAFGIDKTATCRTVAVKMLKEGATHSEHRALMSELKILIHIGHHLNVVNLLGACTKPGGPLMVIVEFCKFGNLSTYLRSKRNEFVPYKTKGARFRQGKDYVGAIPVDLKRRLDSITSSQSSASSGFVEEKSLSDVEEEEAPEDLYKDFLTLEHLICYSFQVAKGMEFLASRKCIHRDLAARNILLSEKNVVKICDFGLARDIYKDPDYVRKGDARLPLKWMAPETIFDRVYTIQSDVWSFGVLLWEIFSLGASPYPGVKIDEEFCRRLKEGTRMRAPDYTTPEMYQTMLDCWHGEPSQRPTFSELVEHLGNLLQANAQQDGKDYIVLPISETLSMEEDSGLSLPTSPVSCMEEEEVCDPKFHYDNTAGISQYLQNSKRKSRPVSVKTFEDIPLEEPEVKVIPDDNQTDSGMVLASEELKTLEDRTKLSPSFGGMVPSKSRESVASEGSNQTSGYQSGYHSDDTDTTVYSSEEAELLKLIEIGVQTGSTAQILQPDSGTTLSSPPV

[9] = molecular target: T3, Serine/threonine-protein kinase Sgk3 (Homo sapiens) (UniProt Q96BR1); assay: Inhibition of human full length SGK3 expressed in baculovirus assessed as substrate phosphorylation using fluorescence-labelled peptides as substrate at 1000 uM after 90 mins by microfluidic peptide phosphorylation assay
T3 sequence (whole entry): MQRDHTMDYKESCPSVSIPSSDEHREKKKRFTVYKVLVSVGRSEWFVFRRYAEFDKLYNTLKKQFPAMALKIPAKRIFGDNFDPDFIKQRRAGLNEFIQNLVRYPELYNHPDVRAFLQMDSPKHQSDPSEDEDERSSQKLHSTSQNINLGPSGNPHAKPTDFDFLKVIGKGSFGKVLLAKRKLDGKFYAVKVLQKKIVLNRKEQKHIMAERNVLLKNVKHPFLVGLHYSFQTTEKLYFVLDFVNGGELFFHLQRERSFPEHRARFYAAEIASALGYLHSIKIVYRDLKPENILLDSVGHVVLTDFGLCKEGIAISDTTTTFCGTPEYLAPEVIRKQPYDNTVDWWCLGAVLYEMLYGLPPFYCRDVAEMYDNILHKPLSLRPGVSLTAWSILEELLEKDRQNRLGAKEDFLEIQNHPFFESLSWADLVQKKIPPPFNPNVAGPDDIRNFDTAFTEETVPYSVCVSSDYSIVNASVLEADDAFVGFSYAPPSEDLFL

## NC1(Cc2ccc(Cl)cc2)CCN(c2ncnc3[nH]ccc23)CC1
[1]
  inhibition: 3.5%

## c1nc(N2CCOCC2)c2nc[nH]c2n1
[2]
  inhibition: 62.5%

## Clc1ccc(C2(c3ccc(-c4ncnc5[nH]cnc45)cc3)CCNCC2)cc1
[3]
  inhibition: 12.5%

## COC(=O)c1cnc(Nc2cnc(C#N)cn2)cc1NCC1CCNCC1
[4]
  inhibition: 9.5%

## NCC1CN(c2ncnc3[nH]c4cnccc4c23)CCO1 (centres undefined)
[5]
  inhibition: 0%

## NCCc1ccc(-c2ncnc3[nH]cnc23)cc1
[6]
  inhibition: 97%
[7]
  inhibition: 78%

## NCC1CCN(c2ncnc3[nH]ccc23)CC1
[8]
  inhibition: 50%

## c1cnc2[nH]ccc2c1
[9]
  inhibition: 80.5%
